Experimental data from US20230416227A1, “PLASMA KALLIKREIN INHIBITORS” (Merck Sharp & Dohme LLC, priority 2020, published 2023).

How the values were obtained:
[1] = target: human factor XIa (Homo sapiens, UniProt P03951); assay: Factor XIa Assay; assay type: biochemical; conditions: human factor XIa 0.04 nM, substrate GPR-AFC, 30 min pre-incubation at 25° C., pH 7.4; read-out: FXIa IC50
[2] = target: T1, Human plasma kallikrein (Homo sapiens, UniProt P03952); assay: Plasma Kallikrein Assay; assay type: biochemical; conditions: purified Human plasma kallikrein 0.5 nM, substrate Acetyl-K-P-R-AFC, pH 7.4
T1 construct: yields a heavy chain (371 amino acids) and a light chain (248 amino acids); purchased Enzyme Research Laboratories
T1 sequence (P03952 391-638 limits assumed): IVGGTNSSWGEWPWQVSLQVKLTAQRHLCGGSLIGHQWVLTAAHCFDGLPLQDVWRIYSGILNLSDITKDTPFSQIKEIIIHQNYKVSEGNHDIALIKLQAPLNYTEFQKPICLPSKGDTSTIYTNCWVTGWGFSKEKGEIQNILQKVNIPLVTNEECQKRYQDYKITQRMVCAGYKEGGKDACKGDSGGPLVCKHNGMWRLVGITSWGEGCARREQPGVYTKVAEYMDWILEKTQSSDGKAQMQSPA
T1 sequence (P03952 20-390 partner limits assumed): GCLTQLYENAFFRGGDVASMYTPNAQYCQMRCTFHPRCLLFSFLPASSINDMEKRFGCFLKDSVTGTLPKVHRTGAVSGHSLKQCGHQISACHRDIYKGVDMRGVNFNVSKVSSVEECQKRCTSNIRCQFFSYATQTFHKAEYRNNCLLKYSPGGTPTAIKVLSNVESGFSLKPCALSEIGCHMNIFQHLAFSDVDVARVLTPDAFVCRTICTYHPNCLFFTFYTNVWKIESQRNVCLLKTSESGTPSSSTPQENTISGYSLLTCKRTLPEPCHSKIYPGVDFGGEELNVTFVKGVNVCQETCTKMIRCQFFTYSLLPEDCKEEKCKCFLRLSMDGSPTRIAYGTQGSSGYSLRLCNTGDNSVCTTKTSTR

human factor XIa, sequence (P03951 388-625 limits assumed): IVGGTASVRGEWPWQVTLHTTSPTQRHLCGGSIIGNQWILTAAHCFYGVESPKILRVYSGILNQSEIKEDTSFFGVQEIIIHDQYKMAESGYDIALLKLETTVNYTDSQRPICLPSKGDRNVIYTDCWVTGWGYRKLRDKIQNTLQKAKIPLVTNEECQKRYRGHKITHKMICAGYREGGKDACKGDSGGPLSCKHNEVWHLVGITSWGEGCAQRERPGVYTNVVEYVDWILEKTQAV
human factor XIa, sequence (P03951 19-387 partner limits assumed): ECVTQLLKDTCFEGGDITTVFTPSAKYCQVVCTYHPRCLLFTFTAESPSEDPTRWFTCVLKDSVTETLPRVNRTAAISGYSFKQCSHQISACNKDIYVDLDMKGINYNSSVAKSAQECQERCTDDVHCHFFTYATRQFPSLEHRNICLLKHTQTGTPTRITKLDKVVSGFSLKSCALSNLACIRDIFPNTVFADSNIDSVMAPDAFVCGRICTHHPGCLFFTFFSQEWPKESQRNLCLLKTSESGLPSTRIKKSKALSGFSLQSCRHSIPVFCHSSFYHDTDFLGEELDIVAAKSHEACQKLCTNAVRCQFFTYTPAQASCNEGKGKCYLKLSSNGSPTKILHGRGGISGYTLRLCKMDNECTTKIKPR

IC50 [1] [nM] | IC50 [2] [nM] | SMILES
838 | 8.6 | O=C(Nc1cnn(Cc2cnc(N3CCC3)nc2)c1)c1nc(-c2c(C(F)F)ccc(Cl)c2F)cnc1C(F)F [Example 136, N-(1-((2-(Azetidin-1-yl)pyrimidin-5-yl)methyl)-1H-pyrazol-4-yl)-6-(3-chloro-6-(difluoromethyl)-2-fluorophenyl)-3-(difluoromethyl)pyrazine-2-carboxamide]
4310 | 19.9 | CC(c1cnc(N2CC3(CC3)C2)nc1)n1cc(NC(=O)c2cncc(-c3c(C(F)F)ccc(Cl)c3F)n2)cn1 (single isomer, unassigned) [Example 93, (R or S)-N-(1-(1-(2-(5-Azaspiro[2.3]hexan-5-yl)pyrimidin-5-yl)ethyl)-1H-pyrazol-4-yl)-6-(3-chloro-6-(difluoromethyl)-2-fluorophenyl)pyrazine-2-carboxamide]
4730 | 0.3 | CN(CC1CCCN1c1ncc(Cn2cc(NC(=O)c3cncc(-c4c(C(F)F)ccc(Cl)c4F)n3)cn2)cn1)CC1(O)CC1 (single isomer, unassigned) [Example 141, (R or S)-6-(3-Chloro-6-(difluoromethyl)-2-fluorophenyl)-N-(1-((2-(2-((((1-hydroxycyclopropyl)methyl)(methyl)amino)methyl)pyrrolidin-1-yl)pyrimidin-5-yl)methyl)-1H-pyrazol-4-yl)pyrazine-2-carboxamide]
4430 | 44.3 | O=C(Nc1cnn(C(c2cnc(N3CCC3)nc2)C(F)F)c1)c1cncc(-c2c(C(F)F)ccc(Cl)c2F)n1 (single isomer, unassigned) [Example 36, (S or R)-N-(1-(1-(2-(azetidin-1-yl)pyrimidin-5-yl)-2,2-difluoroethyl)-1H-pyrazol-4-yl)-6-(3-chloro-6-(difluoromethyl)-2-fluorophenyl)pyrazine-2-carboxamide]
1420 | 52.1 | O=C(Nc1cnn([C@H](CO)c2cnc(N3CCC3)nc2)c1)c1cncc(-c2c(C(F)F)ccc(Cl)c2F)n1 (single isomer, unassigned) [Example 7]
927 | 11.9 | Cc1ncc(-c2c(C(F)F)ccc(Cl)c2F)nc1C(=O)Nc1cnn(C(C)c2cnc(N3CCC3)nc2)c1 (single isomer, unassigned) [Example 28, (R or S)-N-(1-(1-(2-(azetidin-1-yl)pyrimidin-5-yl)ethyl)-1H-pyrazol-4-yl)-6-(3-chloro-6-(difluoromethyl)-2-fluorophenyl)-3-methylpyrazine-2-carboxamide]
1760 | 26 | COc1nc(N2CCC2)ncc1Cn1cc(NC(=O)c2cncc(-c3c(C(F)F)ccc(Cl)c3F)n2)cn1 [Example 23, N-(1-((2-(Azetidin-1-yl)-4-methoxypyrimidin-5-yl)methyl)-1H-pyrazol-4-yl)-6-(3-chloro-6-(difluoromethyl)-2-fluorophenyl)pyrazine-2-carboxamide]
1490 | 27.7 | CC(c1cnc(N2CCC2)nc1)n1cc(NC(=O)c2cncc(-c3c(OC(F)F)ccc(Cl)c3F)n2)cn1 (single isomer, unassigned) [Example 56, (R or S)-N-(1-(1-(2-(Azetidin-1-yl)pyrimidin-5-yl)ethyl)-1H-pyrazol-4-yl)-6-(3-chloro-6-(difluoromethoxy)-2-fluorophenyl)pyrazine-2-carboxamide]
7240 | 11.3 | C[C@H](O)[C@H]1[C@H]2C[C@H]2CN1c1ncc(Cn2cc(NC(=O)c3cncc(-c4c(C(F)F)ccc(Cl)c4F)n3)cn2)cn1 [Example 84, 6-(3-Chloro-6-(difluoromethyl)-2-fluorophenyl)-N-(1-((2-((1S,2R,5R)-2-((S)-1-hydroxyethyl)-3-azabicyclo[3.1.0]hexan-3-yl)pyrimidin-5-yl)methyl)-1H-pyrazol-4-yl)pyrazine-2-carboxamide]
1770 | 20.7 | CC(c1cnc(N2CCC2)cn1)n1cc(NC(=O)c2cncc(-c3c(C(F)F)ccc(Cl)c3F)n2)cn1 (single isomer, unassigned) [Example 29, (S or R)-N-(1-(1-(5-(azetidin-1-yl)pyrazin-2-yl)ethyl)-1H-pyrazol-4-yl)-6-(3-chloro-6-(difluoromethyl)-2-fluorophenyl)pyrazine-2-carboxamide]
3000 | 46.5 | O=C(Nc1cnn(Cc2cnc(N3CC[C@@H]3CO)nc2)c1)c1cncc(-c2c(C(F)F)ccc(Cl)c2F)n1 [Example 111, (R)-6-(3-Chloro-6-(difluoromethyl)-2-fluorophenyl)-N-(1-((2-(2-(hydroxymethyl)azetidin-1-yl)pyrimidin-5-yl)methyl)-1H-pyrazol-4-yl)pyrazine-2-carboxamide]
5820 | 1 | CC(c1cnc(N2CC[C@H]2CN2C[C@@H](O)[C@@H](O)C2)nc1)n1cc(NC(=O)c2cncc(-c3c(C(F)F)ccc(Cl)c3F)n2)cn1 (stereo partly drawn) [Example 167, 6-(3-Chloro-6-(difluoromethyl)-2-fluorophenyl)-N-(1-(1-(2-((S)-2-(((3R,4S)-3,4-dihydroxypyrrolidin-1-yl)methyl)azetidin-1-yl)pyrimidin-5-yl)ethyl)-1H-pyrazol-4-yl)pyrazine-2-carboxamide]
5770 | 0.7 | CC(c1cnc(N2CC[C@H]2CN2CCC(C)(O)C2)nc1)n1cc(NC(=O)c2cncc(-c3c(C(F)F)ccc(Cl)c3F)n2)cn1 (stereo partly drawn) [Example 166, 6-(3-Chloro-6-(difluoromethyl)-2-fluorophenyl)-N-(1-(1-(2-((2S)-2-((3-hydroxy-3-methylpyrrolidin-1-yl)methyl)azetidin-1-yl)pyrimidin-5-yl)ethyl)-1H-pyrazol-4-yl)pyrazine-2-carboxamide]
1020 | 4.3 | C[C@@H](c1cnc(N2C[C@@H]3C[C@@H]3[C@@H]2CO)nc1)n1cc(NC(=O)c2cncc(-c3c(C(F)F)ccc(Cl)c3F)n2)cn1 (single isomer, unassigned) [Example 74, 6-(3-Chloro-6-(difluoromethyl)-2-fluorophenyl)-N-(1-((S or R)-1-(2-((1S,2R,5R or 1R,2S,5S)-2-(hydroxymethyl)-3-azabicyclo[3.1.0]hexan-3-yl)pyrimidin-5-yl)ethyl)-1H-pyrazol-4-yl)pyrazine-2-carboxamide]
1710 | 6.2 | Cc1ncc(-c2c(C(F)F)ccc(Cl)c2F)nc1C(=O)Nc1cnn(Cc2cnc(N3CC(F)(F)C3)c(C)n2)c1 [Example 11, 6-(3-Chloro-6-(difluoromethyl)-2-fluorophenyl)-N-(1-((5-(3,3-difluoroazetidin-1-yl)-6-methylpyrazin-2-yl)methyl)-1H-pyrazol-4-yl)-3-methylpyrazine-2-carboxamide]
2950 | 5.6 | O=C(Nc1cnn(Cc2cnc(N3CC4CC4C3CO)nc2)c1)c1cncc(-c2c(C(F)F)ccc(Cl)c2F)n1 (single isomer, unassigned) [Example 77, 6-(3-Chloro-6-(difluoromethyl)-2-fluorophenyl)-N-(1-((2-((1R,2S,5S or 1S,2R,5R)-2-(hydroxymethyl)-3-azabicyclo[3.1.0]hexan-3-yl)pyrimidin-5-yl)methyl)-1H-pyrazol-4-yl)pyrazine-2-carboxamide]
852 | 9.4 | C[C@H](O)c1ncc(-c2c(C(F)F)ccc(Cl)c2F)nc1C(=O)Nc1cnn(Cc2cnc(N3CCC3)nc2)c1 (single isomer, unassigned) [Example 134]
595 | 3.7 | Cc1ncc(-c2c(C(F)F)ccc(Cl)c2F)nc1C(=O)Nc1cnn(C(CO)c2cnc(N3CCC3)nc2)c1 (single isomer, unassigned) [Example 46, (S or R)-N-(1-(1-(2-(Azetidin-1-yl)pyrimidin-5-yl)-2-hydroxyethyl)-1H-pyrazol-4-yl)-6-(3-chloro-6-(difluoromethyl)-2-fluorophenyl)-3-methylpyrazine-2-carboxamide]
2150 | 17.8 | CC(c1cnc(N2CCC2)nc1)n1cc(NC(=O)c2cncc(-c3c(Br)ccc(Cl)c3F)n2)cn1 (stereo not shown) [Example 62, N-(1-(1-(2-(Azetidin-1-yl)pyrimidin-5-yl)ethyl)-1H-pyrazol-4-yl)-6-(6-bromo-3-chloro-2-fluorophenyl)pyrazine-2-carboxamide]
7640 | 31.2 | C[C@@H](c1cnc(N2CC(C)(F)C2)nc1)n1cc(NC(=O)c2cncc(-c3c(C(F)F)ccc(Cl)c3F)n2)cn1 [Example 101, (S)-6-(3-Chloro-6-(difluoromethyl)-2-fluorophenyl)-N-(1-(1-(2-(3-fluoro-3-methylazetidin-1-yl)pyrimidin-5-yl)ethyl)-1H-pyrazol-4-yl)pyrazine-2-carboxamide]
2000 | 13.1 | O=C(Nc1cnn(Cc2ccc(N3CCC3)nc2)c1)c1cncc(-c2c(C(F)F)ccc(Cl)c2F)n1 [Example 18, N-(1-((6-(Azetidin-1-yl)pyridin-3-yl)methyl)-1H-pyrazol-4-yl)-6-(3-chloro-6-(difluoromethyl)-2-fluorophenyl)pyrazine-2-carboxamide]
9180 | 1.5 | CC(c1cnc(N2CC[C@H]2CN2C[C@@H](O)[C@H](F)C2)nc1)n1cc(NC(=O)c2cncc(-c3c(C(F)F)ccc(Cl)c3F)n2)cn1 (stereo partly drawn) [Example 169, 6-(3-Chloro-6-(difluoromethyl)-2-fluorophenyl)-N-(1-(1-(2-((S)-2-(((3R,4R)-3-fluoro-4-hydroxypyrrolidin-1-yl)methyl)azetidin-1-yl)pyrimidin-5-yl)ethyl)-1H-pyrazol-4-yl)pyrazine-2-carboxamide]
1110 | 15.8 | O=C(Nc1cnn(Cc2cnc(N3CCC3)nc2CO)c1)c1cncc(-c2c(C(F)F)ccc(Cl)c2F)n1 [Example 2, N-(1-((2-(Azetidin-1-yl)-4-(hydroxymethyl)pyrimidin-5-yl)methyl)-1H-pyrazol-4-yl)-6-(3-chloro-6-(difluoromethyl)-2-fluorophenyl)pyrazine-2-carboxamide]
